Legend:
recombinant human PGHS-1 = target: T1, recombinant human PGHS-1 (Homo sapiens, UniProt P23219); test: Inhibition of PGE2 production by recombinant human PGHS-1 (microsomes, baculovirus/Sf9; EIA); format: biochemical; conditions: human recombinant PGHS-1; 60 min preincubation; 10 μM arachidonic acid, 2.5 min
T1 construct: made in house; host or cells: baculovirus/Sf9 insect cells (microsomes)
Description: (§1) Inhibition of prostaglandin biosynthesis was evaluated in recombinant human PGHS-1 and PGHS-2 enzyme assays. Representative compounds dissolved in DMSO (3.3% v/v) were preincubated with microsomes from recombinant human PGHS-1 or PGHS-2 expressed in the baculovirus/Sf9 cell system (Gierse, J. K., Hauser, […]., and Seibert, K. […] The reaction was allowed to run for 2.5 minutes at room temperature prior to quenching with HCl and neutralization with NaOH. PGE2 production in the presence and absence of the drug was determined by EIA analysis. The EIA was conducted in 96 well microtiter plates (Nunc Roskilde, Denmark) and optical density measured using a microplate reader (Vmax, Molecular Devices Corp., Menlo Park, Calif.). EIA reagents for prostaglandin determination were purchased from Perseptive Diagnostics, Cambridge, Mass. PGE2 levels were measured against standards prepared in the same milieu. The immunoassays were conducted as recommended by the manufacturer.

recombinant human PGHS-2 = test: Inhibition of PGE2 production by recombinant human PGHS-2 (microsomes, baculovirus/Sf9; EIA); format: biochemical; conditions: human recombinant PGHS-2, 60 min preincubation, 10 μM arachidonic acid, 2.5 min
Description: as §1

[1] = system: prostaglandin endoperoxide H synthase 1 (PGHS-1); conditions: reported in literature; cited from earlier work
[2] = system: prostaglandin endoperoxide H synthase 2 (PGHS-2); conditions: reported in literature; cited from earlier work

T1 sequence (P23219 24-599): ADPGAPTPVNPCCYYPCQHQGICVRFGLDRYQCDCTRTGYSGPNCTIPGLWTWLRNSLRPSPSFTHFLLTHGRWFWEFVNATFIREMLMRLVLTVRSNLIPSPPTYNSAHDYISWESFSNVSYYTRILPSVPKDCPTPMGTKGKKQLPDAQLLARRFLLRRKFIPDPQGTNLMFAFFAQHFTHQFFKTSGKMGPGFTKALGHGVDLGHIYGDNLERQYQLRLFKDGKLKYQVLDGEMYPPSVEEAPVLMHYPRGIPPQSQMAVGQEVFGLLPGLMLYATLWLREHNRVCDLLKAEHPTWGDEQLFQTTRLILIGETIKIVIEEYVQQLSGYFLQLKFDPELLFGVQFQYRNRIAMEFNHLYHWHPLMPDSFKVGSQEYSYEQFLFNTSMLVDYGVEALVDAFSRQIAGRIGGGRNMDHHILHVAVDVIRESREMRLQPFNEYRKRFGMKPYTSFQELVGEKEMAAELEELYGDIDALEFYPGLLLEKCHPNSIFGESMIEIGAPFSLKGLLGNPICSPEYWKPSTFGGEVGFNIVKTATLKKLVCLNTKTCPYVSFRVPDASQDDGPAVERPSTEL

Row | SMILES | IC50 (recombinant human PGHS-1) [µM] | PGHS-2 % Inhibition (recombinant human PGHS-2; @ 0.1 μM) [%] | PGHS-2 % Inhibition (recombinant human PGHS-2; @ 1.0 μM) [%] | inhibition of PGHS-1 [1] | inhibition of PGHS-2 [2]
1 | Cc1ccc(Cl)c(Nc2ccccc2CON=CC(=O)O)c1Cl [Example 1, glyoxylic acid-O-[2-(2,6-dichloro-3-methylphenylamino)phenylmethyl] oxime] | 6 | 68 |  |  | 
2 | CC(=NOCc1ccccc1Nc1c(Cl)ccc(C)c1Cl)C(=O)O [Example 2, pyruvic acid-O-[2-[(2,6-dichloro-3-methylphenyl)amino]phenylmethyl] oxime] | 61.1 |  | 28 |  | 
3 | Cc1ccc(Cl)c(Nc2ccccc2C(=O)O)c1Cl [Meclofenamic acid] |  |  |  | inhibit both PGHS-1 and PGHS-2 | inhibit both PGHS-1 and PGHS-2
4 | CC(C)Cc1ccc(C(C)C(=O)O)cc1 (stereo not shown) [ibuprofen] |  |  |  | inhibit both isozymes | inhibit both isozymes
5 | COc1ccc2cc([C@H](C)C(=O)O)ccc2c1 [naproxen] |  |  |  | inhibit both isozymes | inhibit both isozymes
